# Results from patent US12257228B2, “Cardioversion methods using budiodarone” (Xyra, LLC, priority 2023, dated 2025).
# Where two headings read alike, the source gives them in different places.
# Legend:
# [1] = Budiodarone concentrations in plasma over time after different single doses (FIG. 1); format: in vivo, patients
# Procedure: (§1) It is noted that budiodarone concentrations used in the examples below include both the free acid and the free base versions of budiodarone.
# In this example, plasma concentrations of budiodarone were evaluated using different single-dosing amounts of the drug. […] The resulting data was placed on a graph and the data for each concentration provided for both a Cmax for the dose employed as well as a trough value at 6 hours.
# [2] = cited from earlier work
# [3] = Trough plasma concentration of budiodarone during b.i.d. dosing cycles and washout; format: in vivo, patients
# Procedure: as §1
# (§2) In this example, patients were selected with long episodes of either paroxysmal or persistent AFib. Each of the patients was implanted with a pacemaker which monitored their heart rhythm. Patients were then evaluated for disease progression by monitoring their heart rhythm without budiodarone treatment in order to generate a baseline level of the duration of episodes of AFib. The baseline data was collected over two weeks. Patients were then given incremental doses of budiodarone at 200 mg b.i.d; 400 mg b.i.d.; 600 mg b.i.d.; and 800 mg b.i.d. where each dose was maintained for 2 weeks for a total of 4 treatment periods. A two-week washout period was employed after the completion of the 800 mg b.i.d. treatment period, wherein a washout period is the time after the last treatment to avoid misinterpreting observations about study-related treatments that may have been due to prior therapies. Pacemaker data were downloaded on days 8 and 14 of each two-week cycle and averages for each test period are shown. Blood was collected during each cycle and tested for the concentration of budiodarone.
# [4] = Impact of food on plasma budiodarone concentration, fasting versus fed (FIG. 2); format: in vivo, patients
# Procedure: This example evaluates the impact on plasma budiodarone concentrations based on a fasting or fed patient. In this example, patients were either fasting or fed before the administration of budiodarone. After budiodarone administration, blood was collected from the patients, and the plasma concentration of budiodarone was determined. FIG. 2 illustrates that in the same dosing of budiodarone, the uptake of budiodarone increased as evidenced by the Cmax values.
# [5] = test system: patients with long episodes of either paroxysmal or persistent AFib; assay: Duration of AFib episodes under incremental b.i.d. doses of budiodarone (pacemaker monitoring); format: in vivo; settings: for Average Episode duration: baseline 4.8 hrs
# Procedure: as §2
compound,measurement,setting,value
"CC[C@H](C)OC(=O)Cc1oc2ccccc2c1C(=O)c1cc(I)c(OCCN(CC)CC)c(I)c1 [budiodarone, (S)-sec-butyl2-(3-(4-(2-(diethylamino)ethoxy)-3,5-diiodobenzoyl)benzofuran-2-yl)acetate]",plasma concentration maintained for over 6 hours,[1]; each single dose at or above 400 mg,greater than 13 ng/mL
same,plasma level maintained for at least 6 hours,"[1]; high dosing, bolus such as 1,000 mg",above 13 ng/mL
same,plasma concentration for up to about 6 hours,"[1]; high single dose (about 800 mg to 1200 mg), see FIG. 1",over 40 ng/mL
same,Cmax,"[1]; human, plasma, oral, 1000 mg, bolus such as 1,000 mg, read-out: Cmax concentration in plasma",> 300 ng/mL
same,concentration at 8 h,"[1]; human, plasma, oral, 1000 mg, bolus such as 1,000 mg, read-out: plasma concentration in about 8 hours",< 20 ng/mL
same,Cmax,"[1]; human, plasma, oral, each single dose at or above 400 mg, plasma, read-out: Cmax",> 50 ng/mL
same,Cmax,"[1]; human, plasma, oral, high single dose (about 800 mg to 1200 mg), see FIG. 1, read-out: Cmax",≤ 350 ng/mL
same,concentration at 6 h,"[1]; human, plasma, oral, single dose at 800 mg or 1,000 mg",~50 ng/mL
same,concentration at 8 h,"[1]; human, plasma, oral, single dose at 800 mg or 1,000 mg, read-out: plasma concentration at 8 hours",≥ 15 ng/mL
same,half-life compared with amiodarone,[2],much shorter half-life than amiodarone
same,effect on QT interval,[2]; while reducing episodes of long-duration AFib,without a significant increase in the QT interval
same,Trough Pk levels ng/ml in plasma,"[3]; 200 mg bid, doses approximately 12 hours apart",2.4 +/ ng/ml
same,Trough Pk levels ng/ml in plasma,"[3]; 400 mg bid, doses approximately 12 hours apart",5.2 +/ ng/ml
same,Trough Pk levels ng/ml in plasma,"[3]; 600 mg bid, doses approximately 12 hours apart",13.1 +/ ng/ml
same,Trough Pk levels ng/ml in plasma,"[3]; 800 mg bid, doses approximately 12 hours apart",19.8 +/ ng/ml
same,washout trough concentration as share of the trough concentration at 800 mg b.i.d.,[3]; 2 weeks post 800 mg b.i.d.,about 1.5%
same,concentration at 12 h,"[3]; human, plasma, 800 mg b.i.d., doses approximately 12 hours apart, read-out: Trough Pk levels ng/ml in plasma",19.8 ng/mL
same,concentration at 2 weeks,"[3]; human, plasma, 800 mg b.i.d., washout, 2 weeks post 800 mg bid, read-out: Trough Pk levels ng/ml in plasma",0.3 ng/mL
same,Trough Pk levels ng/ml in plasma,"[3]; washout, 2 weeks post 800 mg bid",0.3 +/ ng/ml
same,shift in time of Cmax in the fed group versus fasted patients,[4]; fed versus fasted patients,about an hour later
same,"uptake of budiodarone as evidenced by the Cmax values, fed versus fasting","[4]; same dosing of budiodarone, fed versus fasting patients",increased
same,"effective plasma level within 60 min, maintained for up to 6 hours","[4]; single oral dose of 400-1,000 mg, whether or not taken with food",> 50 ng/mL
same,Average Episode duration,"[5]; 200 mg bid for 2 weeks, average of pacemaker downloads on days 8 and 14",1.7 h
same,Average Episode duration,[5]; 400 mg bid for 2 weeks,0.6 h
same,longest average duration of AFib,[5]; 600 mg b.i.d.,6 min
same,Average Episode duration,[5]; 600 mg bid for 2 weeks,0.1 h
same,Average Episode duration,[5]; 800 mg bid for 2 weeks,0.5 h
same,maximum duration AFib levels,[5]; all dosing levels from 400 mg b.i.d. to 800 mg b.i.d.,less than 45 minutes
same,Average Episode duration,[5]; two-week washout after 800 mg bid,2.4
